Target: T1, mGlyT-1b (Mus musculus, UniProt P28571)
T1 construct: host or cells: Flp-in-CHO cells
T1 sequence (P28571 1-651 isoform P28571-2): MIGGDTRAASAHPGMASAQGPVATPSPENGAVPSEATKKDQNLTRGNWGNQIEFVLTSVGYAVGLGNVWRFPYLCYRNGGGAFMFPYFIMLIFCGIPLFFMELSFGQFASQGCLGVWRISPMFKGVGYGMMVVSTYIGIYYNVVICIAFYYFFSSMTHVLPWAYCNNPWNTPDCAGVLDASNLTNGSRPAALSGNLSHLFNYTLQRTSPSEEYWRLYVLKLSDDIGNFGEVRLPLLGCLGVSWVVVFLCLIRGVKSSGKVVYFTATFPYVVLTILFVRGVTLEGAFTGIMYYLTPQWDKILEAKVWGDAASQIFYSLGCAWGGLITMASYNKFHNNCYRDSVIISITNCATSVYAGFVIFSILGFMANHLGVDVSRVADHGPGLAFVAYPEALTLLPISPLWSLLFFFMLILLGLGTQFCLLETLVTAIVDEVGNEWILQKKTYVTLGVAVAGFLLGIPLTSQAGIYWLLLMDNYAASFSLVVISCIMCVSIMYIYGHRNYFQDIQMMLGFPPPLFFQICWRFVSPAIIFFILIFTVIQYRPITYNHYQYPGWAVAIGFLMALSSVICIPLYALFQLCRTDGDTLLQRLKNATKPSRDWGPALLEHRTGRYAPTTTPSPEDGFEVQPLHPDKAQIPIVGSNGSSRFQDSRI
Assay: Glycine Uptake Inhibition Assay (mGlyT-1b)
Format: cell-based
Details: [3H]-glycine uptake inhibition at GlyT-1, Flp-in-CHO cells transfected with mGlyT-1b cDNA
Protocol: DMEM complete medium: Nutrient mixture F-12 (Gibco Life-technologies), fetal bovine serum (FBS) 5%, (Gibco life technologies), Penicillin/Streptomycin 1% (Gibco life technologies), Hygromycin 0.6 mg/ml (Gibco life technologies), Glutamine 1 mM Gibco life technologies)
Uptake buffer (UB): 150 mM NaCl, 10 mM Hepes-Tris, pH 7.4, 1 mM CaCl2, 2.5 mM KCl, 2.5 mM MgSO4, 10 mM (+) D-glucose. Flp-in™-CHO (Invitrogen Cat n^o R758-07) cells stably transfected with mGlyT1b cDNA.
Glycine Uptake Inhibition Assay (mGlyT-1b)
On day 1 mammalian cells, (Flp-in™-CHO), transfected with mGlyT-1b cDNA, were plated at the density of 40,000 cells/well in complete F-12 medium, without hygromycin in 96-well culture plates. On day 2, the medium was aspirated, and the cells were washed twice with uptake buffer (UB). The cells were then incubated for 20 min at 22° C. with either (i) no potential competitor, (ii) 10 mM non-radioactive glycine, (iii) a concentration of a potential inhibitor. A range of concentrations of the potential inhibitor was used to generate data for calculating the concentration of inhibitor resulting in 50% of the effect (e.g. IC50, the concentration of the competitor inhibiting glycine uptake of 50%).
A solution was then immediately added containing [^3H]-glycine 60 nM (11-16 Ci/mmol) and 25 μM non-radioactive glycine. The plates were incubated with gentle shaking, and the reaction was stopped by aspiration of the mixture and washing (three times) with ice-cold UB. The cells were lysed with scintillation liquid, shaken 3 hours and the radioactivity in the cells counted using a scintillation counter.

IC50 | SMILES
31 nM | CS(=O)(=O)c1ccc(OCC2CC2)c(C(=O)N2CCN(c3cc(F)c(C#N)c(F)c3)CC2)c1 [compound 170]
19 nM | CS(=O)(=O)c1ccc(OC2CCCC2)c(C(=O)N2CCN(c3cc(F)c(C#N)c(F)c3)CC2)c1 [compound 172]
36 nM | CS(=O)(=O)c1ccc(OCC(F)(F)C(F)(F)F)c(C(=O)N2CCN(c3ccc(C#N)c(F)c3)CC2)c1 [compound 180]
30 nM | CS(=O)(=O)c1ccc(OCC(F)(F)C(F)(F)F)c(C(=O)N2CCN(c3ccc(C(F)(F)F)cc3)CC2)c1 [compound 182]
22 nM | CS(=O)(=O)c1ccc(OCC(F)(F)C(F)(F)F)c(C(=O)N2CCN(c3ccc(C#N)c(F)c3F)CC2)c1 [compound 184]
48 nM | CS(=O)(=O)c1ccc(OCC(F)(F)C(F)(F)F)c(C(=O)N2CCN(c3c(F)cc(C#N)cc3F)CC2)c1 [compound 186]
47 nM | CS(=O)(=O)c1ccc(OC(CF)CF)c(C(=O)N2CCN(c3ccc(C(F)(F)F)cc3C#N)CC2)c1 [compound 194]
41 nM | CC(C)(C)Oc1ccc(S(C)(=O)=O)cc1C(=O)N1CCN(c2ccc(C#N)c(F)c2F)CC1 [compound 196]
24 nM | CC(C)Oc1ccc(S(C)(=O)=O)cc1C(=O)N1CCN(c2ccc(Cl)cc2C#N)CC1 [compound 202]
41 nM | CS(=O)(=O)c1ccc(OCC(F)(F)C(F)F)c(C(=O)N2CCN(c3ccc(C#N)c(F)c3)CC2)c1 [compound 209]
39 nM | CS(=O)(=O)c1ccc(OCC(F)(F)C(F)F)c(C(=O)N2CCN(c3ccc(C#N)cc3F)CC2)c1 [compound 210]
43 nM | CS(=O)(=O)c1ccc(OCC(F)(F)C(F)F)c(C(=O)N2CCN(c3ccc(C(F)(F)F)cc3)CC2)c1 [compound 211]
29 nM | CS(=O)(=O)c1ccc(OCC(F)(F)C(F)F)c(C(=O)N2CCN(c3ccc(C(F)(F)F)cc3F)CC2)c1 [compound 212]
21 nM | CS(=O)(=O)c1ccc(OCC(F)(F)C(F)F)c(C(=O)N2CCN(c3ccc(C#N)c(F)c3F)CC2)c1 [compound 213]
49 nM | CS(=O)(=O)c1ccc(OCC(F)(F)C(F)F)c(C(=O)N2CCN(c3c(F)cc(C#N)cc3F)CC2)c1 [compound 215]
47 nM | CS(=O)(=O)c1ccc(OCC2CC2)c(C(=O)N2CCN(c3ccc(Cl)cc3C#N)CC2)c1 [compound 228]
43 nM | CC(C)(C)Oc1ccc(S(C)(=O)=O)cc1C(=O)N1CCN(c2cc(F)c(C#N)cc2F)CC1 [compound 234]
42 nM | CC(C)(C)Oc1ccc(S(C)(=O)=O)cc1C(=O)N1CCN(c2ccc(C#N)cc2F)CC1 [compound 244]
30 nM | CC(C)(C)Oc1ccc(S(C)(=O)=O)cc1C(=O)N1CCN(c2ccc(C(F)(F)F)cc2F)CC1 [compound 247]

IC50 | SMILES
32 nM | CC(C)(C)Oc1ccc(S(C)(=O)=O)cc1C(=O)N1CCN(c2cc(F)c(S(C)(=O)=O)cc2F)CC1 [compound 249]
61 nM | CC(C)(C)Oc1ccc(S(C)(=O)=O)cc1C(=O)N1CCN(c2c(F)cc(S(C)(=O)=O)cc2F)CC1 [compound 250]
32 nM | CS(=O)(=O)c1ccc(OCC(F)(F)F)c(C(=O)N2CCN(c3ccc(Cl)c(Cl)c3)CC2)c1 [compound 251]
21 nM | CC(=O)c1ccc(N2CCN(C(=O)c3cc(S(C)(=O)=O)ccc3OC3CCCCC3)CC2)c(F)c1 [compound 281]
27 nM | CS(=O)(=O)c1ccc(OC2CCCCC2)c(C(=O)N2CCN(c3ccc(C#N)cc3)CC2)c1 [compound 282]
8 nM | CS(=O)(=O)c1ccc(OC2CCCCC2)c(C(=O)N2CCN(c3ccc(C#N)cc3F)CC2)c1 [compound 283]
10 nM | CS(=O)(=O)c1ccc(OC2CCCCC2)c(C(=O)N2CCN(c3ccc(C#N)c(F)c3)CC2)c1 [compound 284]
42 nM | CS(=O)(=O)c1ccc(OC2CCCCC2)c(C(=O)N2CCN(c3ccc(C(F)(F)F)cc3)CC2)c1 [compound 285]
33 nM | CS(=O)(=O)c1ccc(OC2CCCCC2)c(C(=O)N2CCN(c3ccc(C(F)(F)F)c(F)c3)CC2)c1 [compound 287]
25 nM | CS(=O)(=O)c1ccc(N2CCN(C(=O)c3cc(S(C)(=O)=O)ccc3OC3CCCCC3)CC2)c(F)c1 [compound 288]
17 nM | CC(C)(C)COc1ccc(S(C)(=O)=O)cc1C(=O)N1CCN(c2ccc(C#N)cc2)CC1 [compound 290]
13 nM | CC(C)(C)COc1ccc(S(C)(=O)=O)cc1C(=O)N1CCN(c2ccc(C#N)cc2F)CC1 [compound 291]
21 nM | CC(C)(C)COc1ccc(S(C)(=O)=O)cc1C(=O)N1CCN(c2ccc(C#N)c(F)c2)CC1 [compound 292]
34 nM | CC(C)(C)COc1ccc(S(C)(=O)=O)cc1C(=O)N1CCN(c2ccc(C(F)(F)F)cc2)CC1 [compound 293]
37 nM | CC(C)(C)COc1ccc(S(C)(=O)=O)cc1C(=O)N1CCN(c2ccc(C(F)(F)F)cc2F)CC1 [compound 294]
16 nM | CC(C)(C)COc1ccc(S(C)(=O)=O)cc1C(=O)N1CCN(c2ccc(C(F)(F)F)c(F)c2)CC1 [compound 295]
43 nM | CC(C)(C)COc1ccc(S(C)(=O)=O)cc1C(=O)N1CCN(c2ccc(S(C)(=O)=O)cc2F)CC1 [compound 296]
30 nM | CC(Oc1ccc(S(C)(=O)=O)cc1C(=O)N1CCN(c2ccc(C(F)(F)F)cc2)CC1)C(F)(F)F (centres unmarked) [compound 301]
45 nM | CC(=O)c1ccc(N2CCN(C(=O)c3cc(S(C)(=O)=O)ccc3OC3CCC3)CC2)c(F)c1 [compound 311]

IC50 | SMILES
18 nM | CS(=O)(=O)c1ccc(OC2CCC2)c(C(=O)N2CCN(c3ccc(C#N)cc3F)CC2)c1 [compound 313]
41 nM | CS(=O)(=O)c1ccc(OC2CCC2)c(C(=O)N2CCN(c3ccc(C(F)(F)F)c(F)c3)CC2)c1 [compound 317]
8 nM | CC(C)Oc1ccc(S(C)(=O)=O)cc1C(=O)N1CCN(c2ccc(C(F)(F)F)cc2C#N)CC1 [compound 363]
36 nM | CC(=O)c1ccc(N2CCN(C(=O)c3cc(S(C)(=O)=O)ccc3OC(C)C)CC2)cc1F [compound 367]
32 nM | CC(=O)c1ccc(N2CCN(C(=O)c3cc(S(C)(=O)=O)ccc3OCC3CC3)CC2)cc1F [compound 369]
41 nM | CC(C)COc1ccc(S(C)(=O)=O)cc1C(=O)N1CCN(c2ccc(S(C)(=O)=O)c(F)c2)CC1 [compound 371]
6 nM | CC(=O)c1ccc(N2CCN(C(=O)c3cc(S(C)(=O)=O)ccc3OCC(C)C)CC2)cc1F [compound 372]
35 nM | CS(=O)(=O)c1ccc(OC2CCCC2)c(C(=O)N2CCN(c3ccc(C(F)(F)F)cc3C#N)CC2)c1 [compound 373]
35 nM | CC(C)COc1ccc(S(C)(=O)=O)cc1C(=O)N1CCN(c2ccc(C(F)(F)F)cc2C#N)CC1 [compound 375]
32 nM | CCS(=O)(=O)c1ccc(OC(C)C)c(C(=O)N2CCN(c3ccc(C(F)(F)F)cc3F)CC2)c1 [compound 393]
23 nM | CC(C)Oc1ccc(S(C)(=O)=O)cc1C(=O)N1CCN(c2ccc(C(F)F)cc2F)CC1 [compound 400]
45 nM | CS(=O)(=O)c1ccc(OC2CCCC2)c(C(=O)N2CCN(c3ccc(C#N)cn3)CC2)c1 [compound 411]
33 nM | CS(=O)(=O)c1ccc(OC2CCCC2)c(C(=O)N2CCN(c3ccc(C(F)(F)F)cn3)CC2)c1 [compound 412]
30 nM | CS(=O)(=O)c1ccc(OC2CCCC2)c(C(=O)N2CCN(c3ncc(C(F)(F)F)cc3Cl)CC2)c1 [compound 413]
46 nM | CC(C)Oc1ccc(S(C)(=O)=O)cc1C(=O)N1CCN(c2ncc(C(F)(F)F)cc2Cl)CC1 [compound 417]
37 nM | CS(=O)(=O)c1ccc(OC2CCCC2)c(C(=O)N2CCN(c3ccc(C(F)(F)F)nc3)CC2)c1 [compound 430]
26 nM | CC(C)Oc1ccc(S(C)(=O)=O)cc1C(=O)N1CCN(c2ncc(C(F)(F)F)cc2F)CC1 [compound 437]
21 nM | CS(=O)(=O)c1ccc(OC2CCCC2)c(C(=O)N2CCN(c3ncc(C(F)(F)F)cc3F)CC2)c1 [compound 439]

Source: patent US7605163B2, “Benzoyl-piperazine derivatives” (Hoffmann-La Roche Inc., priority 2003, dated 2009)
